Cc1ccc2cc(Br)ccc2n1
solubility (mole fraction)
Settings | in DMF | in acetone | in acetonitrile | in ethanol | in ethyl acetate | in isopropanol | in methanol | in n-propanol | in toluene | in water
278.15 K | 0.00585 | 0.00678 | 0.00648 | 0.000938 | 0.0072 | 0.00191 | 0.000232 | 0.00218 | 0.00817 | 6.88e-06
283.15 K | 0.00675 | 0.00793 | 0.00743 | 0.00112 | 0.00844 | 0.00229 | 0.000276 | 0.00261 | 0.00953 | 8.1e-06
288.15 K | 0.00765 | 0.00926 | 0.00855 | 0.00131 | 0.0101 | 0.00274 | 0.000319 | 0.00317 | 0.0111 | 9.62e-06
293.15 K | 0.00869 | 0.0108 | 0.00974 | 0.00151 | 0.0117 | 0.0032 | 0.000372 | 0.00371 | 0.0132 | 1.13e-05
298.15 K | 0.00994 | 0.0126 | 0.0112 | 0.00179 | 0.0136 | 0.00375 | 0.000444 | 0.00438 | 0.0155 | 1.33e-05
303.15 K | 0.0116 | 0.0149 | 0.0131 | 0.00213 | 0.0159 | 0.00442 | 0.000525 | 0.00513 | 0.018 | 1.54e-05
308.15 K | 0.0137 | 0.0175 | 0.0154 | 0.00249 | 0.0187 | 0.00518 | 0.000613 | 0.00593 | 0.0212 | 1.82e-05
313.15 K | 0.0161 | 0.0204 | 0.0182 | 0.00289 | 0.0218 | 0.00608 | 0.000719 | 0.00687 | 0.0248 | 2.13e-05
318.15 K | 0.0188 | 0.0237 | 0.0213 | 0.00334 | 0.0255 | 0.00703 | 0.000849 | 0.0079 | 0.0286 | 2.48e-05
323.15 K | 0.0222 | 0.0276 | 0.0253 | 0.0039 | 0.0299 | 0.00812 | 0.000998 | 0.00914 | 0.0332 | 2.89e-05
